Source: patent US10413520B2, “Oral pharmacological composition including 5-{4-(amino sulfonyl)phenyl}-2,2-dimethyl-4-(3-fluorophenyl)-3(2H)-furanone having crystalline structure with excellent stability” (CRYSTALGENOMICS, INC., priority 2014, dated 2019)
Read-outs that look alike come from different tables or passages of the source.

Tests used:
[1] = Solubility test in solvents, up to 200 vol (Table 1); format: physicochemical; details: organic solvent or mixture, thermodynamic from solid, about 5 mg compound, solvent named in the row (c1)
Excerpt: Then, the solvents were evaporated at room temperature for drying and XRPD patterns of the obtained dried materials were confirmed.

[2] = Solubility test in 28 solvents at r.t. and 50° C. (Table 2)
Procedure: When dissolution was incomplete during the experiment, the solution was maturated by repeatedly heating to 50° C. and then cooling to room temperature 8 times for 24 hr in an incubation chamber. After maturation, the solvent was dried at room temperature.
During the experiment, the completely dissolved solution was stored under a cold condition (4° C.) for 24 hr to allow crystal formation, recovered and dried at room temperature. Then XRPD analysis was performed.

[3] = Particle size analysis by laser diffraction; format: physicochemical; details: dry module, 2 bar
Procedure: The particle sizes of the crystalline form of Comparative Examples 1 and 2 and Example 39 were analyzed using a laser diffraction-based particle size analyzer (Mastersizer 2000®, Malvern). After each sample was fed into a dry module (Scirocco 2000®, Malvern) at a pressure of 2 bar, the 50% volume particle diameter (d(0.5)) and 90% volume particle diameter (d(0.9)) of the particles were measured.

[4] = Room temperature storage of anhydrous form; format: physicochemical; details: stored at room temperature for a long period
Procedure: Then, about 18 g of the compound was dissolved in 200 mL of acetone. The completely dissolved solution was vacuum dried at 40° C. using a rotary evaporator (Buchi Rota Vapour R200). The compound thus obtained was a sponge-like solid. When the compound was stored at room temperature for a long period, the structure of the crystalline form A was gradually formed, and related substances were created due to hygroscopic property.

[5] = Related substance creation under stress conditions (HPLC); format: physicochemical; details: stress conditions 60±2° C. and 85±5% (RH), sealed glass vial; for Total related substance: after 4 week storage
Procedure: Each raw material was sealed in a glass vial and sampled at different elapsed time. The samples were evaluated by HPLC analysis. […] Based on the above results, the crystalline forms A and G were selected and used for the study for manufacturing an oral pharmacological composition.

[6] = Storage stability of crystalline forms (appearance, XRD, related substances); format: physicochemical; details: 25° C./97% RH and 40° C./75% RH, 7 days; for State of crystalline form (XRD): hard capsules; for Appearance and crystalline structures / Creation of related substances: uncapped glass vial
Procedure: Additionally, the crystalline forms of the compound of Formula 1 were evaluated for storage stability. The crystalline form A of Preparative […] conditions (25° C./97% RH) and accelerated storage conditions (40° C./75% RH) for 7 days. X-ray diffraction analysis was performed in accordance with the same method as described in Preparative Examples 5 and 6.

[7] = Dissolution rates of crystalline forms in hard capsules; format: physicochemical; details: 900 ml pH 1.2 solution, 50 and 100 rpm, 37±0.5° C., 2 hr
Procedure: In this example, the dissolution rates of the crystalline forms of the compound of Formula 1 were examined. Specifically, each of the crystalline form A of Preparative Example 5 and the crystalline form G of Preparative Example 6 was filled in hard capsules and was then eluted in 900 ml of a pH 1.2 solution at different revolution numbers of 50 and 100 rpm and a temperature of 37±0.5° C. for 2 hr. The eluted particles were analyzed under the following HPLC conditions:
Column: Hypurity C18, 250×4.6 mm, 5 μm or its equivalent column
(§1) Detector: UV absorption spectrometer (measured at 325 nm)
(§2) Column temperature: 30° C.
(§3) Mobile phase: A—acetonitrile, B—water, A:B=60:40, v/v %

[8] = Pharmacokinetic properties of crystalline forms after oral administration; format: in vivo; details: single oral dose, male SD rats; for AUC / Cmax / Tmax: about 5 mg in 10 mL 0.5% methylcellulose, 10 mL/Kg
Procedure: The pharmacokinetic properties of the different crystalline forms of the compound of Formula 1 were analyzed in vivo. About 5 mg of each of the crystalline form A of Preparative Example 5 and the crystalline form G of Preparative Example 6 was suspended in 10 mL of a 0.5% methylcellulose solution to produce a formulation for oral use. Then, 6 week old male SD rats (Orient Bio. Inc., Korea) were divided into two groups. About 3 mL (10 mL/Kg) of the oral formulation was once administered orally to each rat and blood samples were drawn from the rat at predetermined intervals of 0.167, 0.5, 1.0, 2.0, 4.0, 6.0, 8.0, and 24.0 hr. The blood samples were used to analyze the pharmacokinetic parameters of the crystalline form.
The pharmacokinetic parameters of the crystalline forms were analyzed using Waters Quattro premier XE 2795 Alliance HT (Waters) under the following conditions: flow rate=0.25 ml/min, column temperature=40° C., injection volume=7 μL, and mobile phase=A: 1 mM ammonium acetate & 0.1% acetic acid (35%), B: ACN (65%). Linearity was established with 8 different standard concentrations.
The oral formulations including the compound of Preparative Example 5 and the compound of Preparative Example 6, respectively, were administered to the different rats.

[9] = Light stability of crystalline form A in capsules; format: physicochemical; details: for Amounts of related substances (each) / Amounts of related substances (total) / Appearance / Content / Peak retention time confirmation: PTP, light stress (white and UV florescent lamp)
Procedure: (§4) The crystalline form A was filled in a hard capsule (2 mg per capsule) and stored under the light stress conditions shown in Table 11. Thereafter, the appearance of the crystalline form A, the retention time of the major peak, the amounts (%) of related substances, and the compound content were analyzed.

[10] = Dissolution rates of crystalline form with different particle sizes; format: physicochemical; details: 2 mg per hard capsule, 900 ml pH 1.2 and pH 6.8 solutions, 100 rpm, 37±0.5° C., 3 hr
Procedure: In this example, the dissolution rates of the crystalline form with different particle sizes were examined. The particles of Comparative Examples 1 and 2 and Example 39 were filled in different hard capsules (2 mg per capsule) and were then eluted in 900 ml of a pH 1.2 solution and 900 ml of a pH 6.8 solution at a revolution number of 100 rpm and a temperature of 37±0.5° C. for 3 hr. The eluted particles were analyzed under the same HPLC conditions as described in Test Example 1.

[11] = Temperature stability of crystalline form A in capsules; format: physicochemical; details: PTP, 60 ± 5% RH
Procedure: The retention time of the major peak, the amounts of related substances, and the compound content were analyzed by HPLC under the following conditions.
<HPLC Conditions for Analysis of Related Substances>
Column: Hypurity C18, 250×4.6 mm, […] or its equivalent column
Detector: UV absorption spectrometer (measured at 241 nm)
as §2
Mobile phase: A—acetonitrile, B—0.1% v/v trifluoroacetic acid (TFA) in water
<HPLC Conditions for Analysis of the Compound Content>
as §1, §3
Diluent: water:acetonitrile=50:50, v/v %

[12] = Humidity stability of crystalline form A in capsules; format: physicochemical; details: PTP, 25 ± 2° C., 90 ± 5% RH
Procedure: as §4, with “severe humidity” for “light stress”, “10.” for “11.”

## CC1(C)OC(c2ccc(S(N)(=O)=O)cc2)=C(c2cccc(F)c2)C1=O [Example 4]
[1]; read-out: Solubility at 100 vol (500 uL)
  solubility: > 10000 µg/mL

## CC1(C)OC(c2ccc(S(N)(=O)=O)cc2)=C(c2cccc(F)c2)C1=O [Example 5]
[1]; read-out: Solubility at 200 vol (1000 uL)
  solubility: < 5000 µg/mL

## CC1(C)OC(c2ccc(S(N)(=O)=O)cc2)=C(c2cccc(F)c2)C1=O [compound of Formula 1]
[2]; IPA, Toluene, TBME, Diethyl ether, Heptane, water
  Dissolution in solvent volume up to 100 times, heated up to 50° C.: not dissolved
[2]; acetone, 2-butanone, THF, DMSO, Methylpyrrolidine, Dioxane, acetonitrile aqueous solution, NMP, 1-methoxy-IPA
  Dissolution in solvent volume 10 times the raw material: dissolved
[2]; ethyl acetate, acetonitrile, MIBK, DCM, Nitromethane
  Dissolution in solvent volume 20 times to 40 times the raw material: dissolved

## CC1(C)OC(c2ccc(S(N)(=O)=O)cc2)=C(c2cccc(F)c2)C1=O [Comparative Example 1]
[3]
  Particle size d(0.1): 40.55 μm
  Particle size d(0.5), 50% volume particle diameter: 136.49 μm
  Particle size d(0.9), 90% volume particle diameter: 527.04 μm

## CC1(C)OC(c2ccc(S(N)(=O)=O)cc2)=C(c2cccc(F)c2)C1=O [Preparation Example 2]
[4]
  Physicochemical stability: physicochemically unstable

## CC1(C)OC(c2ccc(S(N)(=O)=O)cc2)=C(c2cccc(F)c2)C1=O [Preparative Example 5]
[5]
  Total related substance: about 0.1%
[6]
  State of crystalline form (XRD): maintained stable
  Appearance and crystalline structures: remained unchanged
  Creation of related substances: rarely observed
[7]
  Dissolution rate: higher dissolution rates than the crystalline form G
[8]; male, SD, rat, blood, po, 5 mg, read-out: AUC
  AUC: 2320 ng·h/mL
[8]; male, SD, rat, blood, po, 5 mg, read-out: Cmax
  Cmax: 751 ng/mL
[8]; male, SD, rat, blood, po, 5 mg, read-out: Tmax
  Tmax: 30 min
[8]
  In vivo dissolution rates (blood levels over time): higher in vivo dissolution rates than the crystalline form G of Preparative Example 6
[9]; light stress storage conditions
  Time until related substances exceeded the criteria: ≤ 7 days

## CC1(C)OC(c2ccc(S(N)(=O)=O)cc2)=C(c2cccc(F)c2)C1=O [crystalline form B]
[5]
  Level of total related substance over time: rapidly increased

## CC1(C)OC(c2ccc(S(N)(=O)=O)cc2)=C(c2cccc(F)c2)C1=O [Example 39]
[3]
  Particle size d(0.1): 1.75 μm
  Particle size d(0.5), 50% volume particle diameter: 5.98 μm
  Particle size d(0.9), 90% volume particle diameter: 15.23 μm
[10]
  Dissolution rate: higher dissolution rates than the particles of Comparative Examples 1 and 2
[11]; 60 ± 2° C., 24 hr
  Amounts of related substances (each): 0.0%,
  Amounts of related substances (total): 0.0%
  Appearance: Unchanged
  Content: 103.0%
  Peak retention time confirmation: The same
[11]; 80 ± 2° C., 24 hr
  Amounts of related substances (each): 0.0%,
  Amounts of related substances (total): 0.0%
  Appearance: Unchanged
  Content: 101.5%
  Peak retention time confirmation: The same
[11]; 90 ± 2° C., 24 hr
  Amounts of related substances (each): 0.0%,
  Amounts of related substances (total): 0.0%
  Appearance: Unchanged
  Content: 101.8%
  Peak retention time confirmation: The same
[11]; 90 ± 2° C., 72 hr
  Amounts of related substances (each): 0.1%,
  Amounts of related substances (total): 0.1%
  Appearance: Unchanged
  Content: 101.1%
  Peak retention time confirmation: The same
[12]; 1 week
  Amounts of related substances (each): 0.1%
  Amounts of related substances (total): 0.1%,
  Appearance: Unchanged
  Content: 103.1%
  Peak retention time confirmation: The same
[12]; 2 weeks
  Amounts of related substances (each): 0.1%, 0.1%
  Amounts of related substances (total): 0.1%, 0.1%
  Appearance: Unchanged
  Content: 103.1%
  Peak retention time confirmation: The same
[12]; 4 weeks
  Amounts of related substances (each): 0.1%,
  Amounts of related substances (total): 0.1%
  Appearance: Unchanged
  Content: 101.2%
  Peak retention time confirmation: The same
[9]; 1 week
  Amounts of related substances (each): 1.7%
  Amounts of related substances (total): 3.0%
  Appearance: Unchanged
  Content: 103.4%
  Peak retention time confirmation: The same
[9]; 2 weeks
  Amounts of related substances (each): 2.1%
  Amounts of related substances (total): 3.7%
  Appearance: Unchanged
  Content: 103.1%
  Peak retention time confirmation: The same
[9]; 4 weeks
  Amounts of related substances (each): 2.3%
  Amounts of related substances (total): 4.1%
  Appearance: Unchanged
  Content: 99.1%
  Peak retention time confirmation: The same

## CC1(C)OC(c2ccc(S(N)(=O)=O)cc2)=C(c2cccc(F)c2)C1=O [Comparative Example 2]
[3]
  Particle size d(0.1): 5.15 μm
  Particle size d(0.5), 50% volume particle diameter: 32.17 μm
  Particle size d(0.9), 90% volume particle diameter: 83.54 μm

## CC1(C)OC(c2ccc(S(N)(=O)=O)cc2)=C(c2cccc(F)c2)C1=O [Preparative Example 6]
[5]
  Total related substance: about 0.1%
[6]
  State of crystalline form (XRD): maintained stable
  Appearance and crystalline structures: remained unchanged
  Creation of related substances: rarely observed
[8]
  AUC: 2416.835 ng·h/mL
  Cmax: 513.614 ng/mL
  Tmax: 60 min
